For data set [1] the following is noted: Crystal; DTA.
Data set [2] can be described thus: Molar enthalpy of transition or fusion. To be noted: Crystal; DSC.

Numbers after ± are expanded uncertainties.

For `CN1C(=O)N[C@@H]2NC(=O)N[C@@H]21` (racemic), the Normal melting temperature in data set [1] was determined as 261.6 ± 0.4 °C. In addition, in data set [2], the “Molar enthalpy of transition or fusion” value worked out at 8.15 ± 0.191 kcal/mol.
In the same order, the values of `CN1C(=O)N[C@H]2[C@@H]1N(C)C(=O)N2C` (racemic) are 92.6 ± 0.4 °C and 4.8 ± 0.167 kcal/mol.
In the case of `CN1C(=O)N[C@H]2[C@@H]1NC(=O)N2C` (racemic), the Normal melting temperature in data set [1] stood at 277.1 ± 0.4 °C. The “Molar enthalpy of transition or fusion” value in data set [2] is 5.83 ± 0.167 kcal/mol.

For the origin of these results see the NIST ThermoML archive (doi:10.1016/j.tca.2015.09.023).
